These compounds were tested on HIV-1 vectors bearing the S230N IN mutant (assay: Single-round HIV-1 replication antiviral assay, S230N IN mutant). Conditions: EC50 of saturated 7 over EC50 of unsaturated 6, S230N IN.
Format: cell-based
Excerpt: To further evaluate the antiviral activities of select compounds, we determined their EC50 values against the IN mutant S230N, which has been selected in vitro against an early Merck INSTI L810,830, a prototype for naphthyridine analogs.
Human embryonic kidney cell culture cell line 293 was acquired from the American Type Culture Collection (ATCC). The human osteosarcoma cell line, HOS, was obtained from Dr. Richard Schwartz (Michigan State University, East Lansing, MI, USA) and grown in Dulbecco’s modified Eagle’s medium (Invitrogen, Carlsbad, CA, USA) supplemented with 5% (v/v) fetal bovine serum, 5% newborn calf serum, and penicillin (50 units/mL) plus streptomycin (50 µg/mL; Quality Biological, Gaithersburg, MD, USA). The transfection vector, pNLNgoMIVR-ΔLUC was made from pNLNgoMIVR-ΔEnv.HSA by removing the HSA reporter gene and replacing it with a luciferase reporter gene between the NotI and XhoI restriction sites. To produce the new IN mutant S230N used in this study, the IN open reading frame was removed from pNLNgoMIVR-ΔENV.LUC by digestion with KpnI and SalI, and the resulting fragment was inserted between the KpnI and SalI sites of pBluescript KS+. Using that construct as the wild-type template, we prepared the following HIV-1 IN mutant S230N using the QuikChange II XL site-directed mutagenesis kit (Agilent Technologies, Santa Clara, CA, USA) protocol. The following sense oligonucleotides were used with matching cognate antisense oligonucleotides (not shown) (Integrated DNA Technologies, Coralville, IA, USA) in the mutagenesis: S230N 5′-[…]-3′. The DNA sequence of the IN mutant S230N construct was verified independently by DNA sequence determination. The mutated IN coding sequences from pBluescript KS+ were then subcloned into pNLNgoMIVR-ΔEnv.LUC (between the KpnI and SalI sites) to produce mutant HIV-1 constructs, which were also checked by DNA sequencing. […]. On the day prior to transfection, 293 cells were plated on 100 mm diameter dishes at a density of 1.5 × 10^6 cells per plate. Next, 293 cells were transfected with 16 µg of pNLNgoMIVR^-ΔLUC and 4 µg of pHCMV-g (obtained from Dr. Jane Burns, University of California, San Diego) using the calcium phosphate method. At approximately 6 h after the calcium phosphate precipitate was added, 293 cells were washed twice with phosphate-buffered saline (PBS) and incubated with fresh media for 48 h. The virus-containing supernatants were then harvested, clarified by low-speed centrifugation, filtrated, and diluted for preparation in antiviral infection assays. On the day prior to the screen, HOS cells were seeded in a 96-well luminescence cell culture plate at a density of 4000 cells in 100 µL per well. On the day of the screen for cellular cytotoxicity determination, cells were treated with compounds from a concentration range of 250 µM to 0.05 µM and then incubated at 37 °C for 48 h. On the day of the screen for antiviral activity infection assays, cells were treated with compounds from a concentration range of 5 µM to 0.0001 µM using 11 serial dilutions and then incubated at 37 °C for 3 h. After compound incorporation and activation in the cell, 100 µL of virus-stock (WT or mutant) diluted to achieve a luciferase signal between 0.2 and 1.5 Relative Luciferase Units (RLUs) was added to each well and further incubated at 37 °C for 48 h. Cellular cytotoxicity was measured by using the ATP Lite Luminescence detection system and monitored by adding 50 µL of cell lysis buffer from the Luminescence ATP detection assay to each well followed by mixing at 700 rpm at room temperature for 5 min using a compact thermomixer. […]

**Q.** Which “Ratio of the antiviral potencies after and before hydrogenation (S230N)” value does the source give for `O=C(NCc1ccc(F)cc1F)c1cn2c(c(O)c1=O)C(=O)N(CCCCO)CC2` [Compound 7e, N-(2,4-Difluorobenzyl)-9-hydroxy-2-(4-hydroxybutyl)-1,8-dioxo-1,3,4,8-tetrahydro-2H-pyrido [1,2-a]pyrazine-7-carboxamide] here?
**A.** 3.28

Same assay, conditions: Human immunodeficiency virus 1, HOS, 48 h, read-out: EC50, antiviral potency, S230N IN mutant

**Q.** How did the EC50 turn out when `O=C(NCc1ccc(F)cc1F)c1cn2ccn(CCCCCO)c(=O)c2c(O)c1=O` [Compound 6d, N-(2,4-Difluorobenzyl)-9-hydroxy-2-(5-hydroxypentyl)-1,8-dioxo-1,8-dihydro-2H-pyrido [1,2-a]pyrazine-7-carboxamide] was run?
**A.** 15.4 nM

**Q.** `O=C(NCc1ccc(F)cc1F)c1cn2c(c(O)c1=O)C(=O)N(CCCCCCO)CC2` [Compound 7c, N-(2,4-Difluorobenzyl)-9-hydroxy-2-(6-hydroxyhexyl)-1,8-dioxo-1,3,4,8-tetrahydro-2H-pyrido [1,2-a]pyrazine-7-carboxamide] was tested. Which EC50 did it give?
**A.** 38 nM

**Q.** For `O=C(NCc1ccc(F)cc1F)c1cn2c(c(O)c1=O)C(=O)N(CCCCO)CC2` [Compound 7e, N-(2,4-Difluorobenzyl)-9-hydroxy-2-(4-hydroxybutyl)-1,8-dioxo-1,3,4,8-tetrahydro-2H-pyrido [1,2-a]pyrazine-7-carboxamide], which EC50 is on record?
**A.** 101 nM

**Q.** With `O=C(NCc1ccc(F)cc1F)c1cn2ccn(CCCCCCO)c(=O)c2c(O)c1=O` [Compound 6c, N-(2,4-Difluorobenzyl)-9-hydroxy-2-(6-hydroxyhexyl)-1,8-dioxo-1,8-dihydro-2H-pyrido [1,2-a]pyrazine-7-carboxamide] as the compound, how does the EC50 read?
**A.** 9.3 nM

**Q.** For `O=C(NCc1ccc(F)cc1F)c1cn2ccn(CCCCO)c(=O)c2c(O)c1=O` [Compound 6e, N-(2,4-Difluorobenzyl)-9-hydroxy-2-(4-hydroxybutyl)-1,8-dioxo-1,8-dihydro-2H-pyrido [1,2-a]pyrazine-7-carboxamide], which EC50 is on record?
**A.** 30.7 nM

Source: article PMC9919513, “A Practical Approach to Bicyclic Carbamoyl Pyridones with Application to the Synthesis of HIV-1 Integrase Strand Transfer Inhibitors” (Molecules, 2023)
